Target: T1, mouse Nurr1 full-length (Mus musculus, UniProt Q06219)
T1 construct: pcDNA3.1 Myc/His mouse Nurr1 full-length construct; expressed in transfected cells; host or cells: SK-N-BE2C
Assay: Luciferase reporter gene assay for Nurr1 transcriptional activity in SK-N-BE2C cells
Assay type: cell-based
Details: relative activity over control (luminescence value; 1.0)
Protocol: To investigate whether the PG analogs of the present invention activate Nurr1 function, the inventors of the present invention employed an reporter gene assay and examined the transcriptional activation as described in Kim, C.-H. et al., Proceedings of the National Academy of Sciences 112, 8756-8761, doi:10.1073/pnas.1509742112 (2015).
The gene assay was performed by Luciferase assay as described below:
[Protocol for Luciferase Assay to Determine Nurr1 Transcriptional Activity] • 1. SK-N-BE2C cells were maintained in HyClone™ DMEM High Glucose (Cat. No.: SH30022.01) with 10% (v/v) fetal bovine serum (FBS), 100 units/ml penicillin and 100 μg/ml streptomycin. • 2. Seed 1.5×10^5 SK-N-BE2C cells/well into a 24-well plate and incubate at 37° C. with 5% CO2 for 24 hours. • 3. After 24 hours, transfect cells with pcDNA3.1 Myc/His mouse Nurr1 full-length construct, firefly luciferase reporter vector (pGL-3 basic from Promega, Cat. No.:E1751; with appropriate response element cloned in) and Renilla luciferase control vector (pRL-null from Promega, Cat. No.:E2271) in the ratio of 8:1:1 (Nurr1: firefly: renilla) or 400 ng, 50 ng and 50 ng respectively, amounting to a total of 500 ng in the 50 μl transfection mix for 1 well. • 4. To make the transfection mix, first prepare the DNA with P3000 reagent by adding the appropriate amount of DNA with 1 μl P3000 reagent and top up with Opti-MEM® I Reduced-Serum Media (from ThermoFisher Scientific [Cat. No.: 31985070]) to 25 μl. Incubate for 5 minutes at room temperature. • 5. Make another mix consisting of 1 μl Lipofectamine 3000 reagent with 24 μl Opti-MEM® I Reduced-Serum Media per well. Add this Lipofectamine mix to the previous DNA-P3000 mix (after the previous 5 minute incubation) and incubate them for 15 minutes at room temperature. [P3000:Lipofectamine=1:1]. • 6. In the meantime, change the media in the sample wells with fresh DMEM media without antibiotics. • 7. After 15 minutes incubation, add the 50 μl transfection mix into each well and incubate the plate for 24 hours at 37° C. with 5% CO2. • 8. After 24 hours, change the media to normal DMEM media with antibiotics and add various doses of compounds into designated wells and incubate the plate for another 24 hours at 37° C. with 5% CO2. • 9. Following the 24-hour incubation period, luciferase assay can be conducted using Dual-Glo Luciferase® kit from Promega (Cat. No.: E2920). • 10. Lyse each tested wells for 15 minutes with 75 μl of passive lysis buffer provided in the Dual-Luciferase® kit from Promega (Cat. No.: E1910). [Alternatively, add 75 μl of PBS and 75 μl of Dual-Glo® Luciferase Reagent and incubate for 10 minutes at room temperature (cover the plate with foil to protect from light). Transfer the entire sample in each well to a Greiner CELLSTAR® 96-well white polystyrene plate then proceed to step 13]. • 11. After 15 minutes, transfer each lysed sample to a Greiner CELLSTAR® 96-well white polystyrene plate (Cat. No.:655083). • 12. To each well of lysed cells, add 75 μl of Dual-Glo® Luciferase Reagent and incubate for 10 minutes at room temperature (cover the plate with foil to protect from light). • 13. Set the measurement with a 10-second integrated measurement period. • 14. Add 75 μl of Dual-Glo® Stop & Glo® reagent into each well and incubate for 10 minutes before commencing with the same parameters as before to determine the RLU for the Renilla luciferase. • 15. The averaged reading for wells corresponding to non-transfected cells can be subtracted from each RLU reading and duplicate/triplicate readings can then be averaged. Normalization of the luminescence reading for each well can be carried out by dividing the firefly luciferase RLU with the corresponding Renilla luciferase RLU. Each drug-treated well can then be normalized against the averaged DMSO-treated well reading.

T1 sequence (Q06219 whole entry): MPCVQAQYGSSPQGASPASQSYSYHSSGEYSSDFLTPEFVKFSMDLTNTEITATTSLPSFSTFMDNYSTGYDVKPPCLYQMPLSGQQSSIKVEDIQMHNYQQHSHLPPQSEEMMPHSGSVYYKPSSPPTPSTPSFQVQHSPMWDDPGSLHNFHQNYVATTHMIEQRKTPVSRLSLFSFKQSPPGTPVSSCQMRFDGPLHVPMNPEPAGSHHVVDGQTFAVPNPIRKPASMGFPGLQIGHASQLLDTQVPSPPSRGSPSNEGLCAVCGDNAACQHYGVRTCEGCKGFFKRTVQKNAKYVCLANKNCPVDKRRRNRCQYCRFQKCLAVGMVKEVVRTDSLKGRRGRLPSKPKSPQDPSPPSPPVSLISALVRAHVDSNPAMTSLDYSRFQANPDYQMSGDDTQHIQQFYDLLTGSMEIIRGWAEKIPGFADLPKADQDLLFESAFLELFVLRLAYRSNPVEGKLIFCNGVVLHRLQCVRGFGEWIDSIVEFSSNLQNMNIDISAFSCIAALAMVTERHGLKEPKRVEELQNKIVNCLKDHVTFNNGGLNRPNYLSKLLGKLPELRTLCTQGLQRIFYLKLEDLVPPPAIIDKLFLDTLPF

SMILES	Fold activity (1 uM)
CCCCC[C@](C)(O)/C=C/[C@@H]1[C@@H](C/C=C\CCCC(=O)O)[C@@H](O)C[C@H]1O [Compound 86, Carboprost]	C (below 1.0 (low activity))
CCCCC[C@H](O)/C=C/[C@H]1[C@H](O)CC(=O)[C@@H]1CCCCCCC(=O)Nc1cccc(C(=O)Nc2ccccc2)c1 [Compound 6, 3-(7-((1R,2R,3R)-3-hydroxy-2-((S,E)-3-hydroxyoct-1-enyl)-5-oxocyclopentyl)heptanamido)-N-phenylbenzamide]	B (1.1~2.0 (moderate))
CCCC1([C@H](O)C/C=C/[C@H]2[C@H](O)CC(=O)[C@@H]2CCCCCCC(=O)O)CCC1 [Compound 31, (R)-Butaprost (free acid)]	B (1.1~2.0 (moderate))
CCCC[C@H](C)C[C@H](O)/C=C/[C@H]1[C@H](O)CC(=O)[C@@H]1CCCC/C=C/C(=O)O [Compound 67, Limaprost]	A (above 2.0 (high activity))
CCCCCC(O)/C=C/[C@H]1[C@H](O)CC(=O)[C@@H]1CCCCCCC(=O)Oc1ccc(NC(=O)c2ccc(F)cc2)cc1 (stereo partly drawn) [Compound 11, 4-(4-fluorobenzamido)phenyl 7-((1R,2R,3R)-3-hydroxy-2-((E)-3-hydroxyoct-1-enyl)-5-oxocyclopentyl)heptanoate]	A (above 2.0 (high activity))
CCCCC(C)(C)[C@H](O)/C=C/[C@H]1[C@H](O)CC(=O)[C@@H]1C/C=C\CCCC(=O)Oc1ccc(NC(=O)c2ccc(NC(C)=O)cc2)cc1 [Compound 77, 16,16-dimethyl Prostaglandin E2 p-(p-acetamidobenzamido) phenyl ester]	A (above 2.0 (high activity))
CCCCC[C@H](O)/C=C/[C@H]1[C@H](O)CC(=O)[C@@H]1C/C=C\CCCC(=O)NCCO [Compound 36, Prostaglandin E2 Ethanolamide]	B (1.1~2.0 (moderate))
CNC(=O)CCC/C=C\C[C@@H]1[C@@H](/C=C/[C@@H](O)CCc2ccccc2)[C@H](O)C[C@@H]1O [Compound 80, 17-phenyl trinor PGF2a methyl amide]	C (below 1.0 (low activity))
CS(=O)(=O)NC(=O)CCC/C=C\C[C@H]1C(=O)C[C@@H](O)[C@@H]1/C=C/[C@@H](O)COc1ccccc1 [Compound 22, Sulprostone]	B (1.1~2.0 (moderate))
CCCC1([C@H](O)C/C=C/[C@H]2[C@H](O)CC(=O)[C@@H]2C/C=C\CCCC(=O)O)CCC1 [Compound 43, CAY10408]	B (1.1~2.0 (moderate))
CCCCC[C@H](O)CC[C@H]1[C@H](O)CC(=O)[C@@H]1CCCCCCC(=O)O [Compound 58, 13,14-dihydro Prostaglandin E1]	A (above 2.0 (high activity))
CCCCCC(=O)CC[C@H]1C(=O)C[C@H](O)[C@@H]1C/C=C\CCCC(=O)O [Compound 33, 13,14-dihydro-15-keto Prostaglandin D2]	B (1.1~2.0 (moderate))
CCCCC[C@H](O)/C=C/[C@H]1[C@H](O)CC(=O)[C@@H]1CCCCCCC(=O)OCc1ccccc1 [Compound 15, benzyl 7-((1R,2R,3R)-3-hydroxy-2-((S,E)-3-hydroxyoct-1-enyl)-5-oxocyclopentyl)heptanoate]	A (above 2.0 (high activity))
C=C1C[C@H](O)[C@H](C/C=C\CCCC(=O)O)[C@H]1/C=C/[C@@H](O)CCCCC [Compound 25, 11-deoxy-11-methylene Prostaglandin D2]	B (1.1~2.0 (moderate))
CCCCC[C@H](O)/C=C/[C@H]1[C@H](O)CC(=O)[C@@H]1C/C=C/CCCC(=O)Oc1ccc(NC(C)=O)cc1 [Compound 44, Prostaglandin E2 p-acetamidophenyl ester]	A (above 2.0 (high activity))
O=C(O)CCC/C=C\C[C@H]1[C@@H](O)CC(=O)[C@@H]1/C=C/[C@@H](O)COc1cccc(C(F)(F)F)c1 [Compound 23, 11-keto Fluprostenol]	B (1.1~2.0 (moderate))
CC/C=C/C[C@H](O)/C=C/[C@H]1[C@H](O)CC(=O)[C@@H]1C/C=C\CCCC(=O)O (relative stereo) [Compound 78, 17-trans Prostaglandin E3]	A (above 2.0 (high activity))
CCCCC[C@H](O)/C=C/[C@H]1[C@H](O)CC(=O)[C@@H]1CCCCCCC(=O)NOc1ccccc1 [Compound 9, 7-((1R,2R,3R)-3-hydroxy-2-((S,E)-3-hydroxyoct-1-enyl)-5-oxocyclopentyl)-N-phenoxyheptanamide]	A (above 2.0 (high activity))
CCCCC[C@H](O)/C=C/[C@H]1[C@H](O)CC(=O)[C@@H]1CCCCCCC(=O)Nc1ccc(NC(=O)c2ccccc2)cc1 [Compound 3, N-(4-(7-((1R,2R,3R)-3-hydroxy-2-((S,E)-3-hydroxyoct-1-en-1-yl)-5-oxocyclopentyl)heptanamido)phenyl)benzamide]	B (1.1~2.0 (moderate))
CCCCCC(O)/C=C/C1C(=O)CC(O)C1C/C=C\CCCC(=O)OCC(O)CO (centres unmarked) [Compound 17, Prostaglandin D2-1-glyceryl ester]	B (1.1~2.0 (moderate))
CCCCCC(=O)CC[C@H]1[C@H](O)CC(=O)[C@@H]1C/C=C\CCCC(=O)O [Compound 29, 13,14-dihydro-15-keto Prostaglandin E2]	B (1.1~2.0 (moderate))
CCCCC(C)(C)[C@H](O)/C=C/[C@H]1[C@H](O)CC(=O)[C@@H]1CC(=O)CCCCC(=O)O [Compound 84, 16,16-dimethyl-6-keto Prostaglandin E1]	B (1.1~2.0 (moderate))

The remaining lines, values ahead:

Fold activity (1 uM)	SMILES
B (1.1~2.0 (moderate))	CCCCC[C@@H](O)/C=C/[C@H]1[C@H](C/C=C\CCCC(=O)O)C(=O)C[C@@H]1O [Compound 47, ent-Prostaglandin E2]
A (above 2.0 (high activity))	CCCCC[C@](C)(O)/C=C/[C@H]1[C@H](O)CC(=O)[C@@H]1CCCCCCC(=O)O [Compound 27, 15(S)-15-methyl Prostaglandin E1]
A (above 2.0 (high activity))	CCCCC[C@H](O)/C=C/[C@H]1[C@H](O)CC(=O)[C@@H]1CCCCCCC(=O)O [Compound 73, Prostaglandin E1]
C (below 1.0 (low activity))	CCCCC[C@H](O)/C=C/[C@H]1[C@@H](O)CC(=O)[C@@H]1CCCCCCC(=O)O [Compound 85, 11b-Prostaglandin E1]
B (1.1~2.0 (moderate))	CCCCC[C@H](O)/C=C/[C@H]1[C@H](O)CC(=O)[C@@H]1CCCCCCC(=O)NCCO [Compound 88, Alprostadil Ethanolamide]
A (above 2.0 (high activity))	CCCCCCC[C@H](O)/C=C/[C@H]1[C@H](O)CC(=O)[C@@H]1C/C=C\CCCC(=O)O [Compound 62, 20-ethyl Prostaglandin E2]
C (below 1.0 (low activity))	CCCCC[C@H](O)/C=C/[C@H]1[C@H](O)CC(=O)[C@@H]1CCCCC(=O)O [Compound 93, 2,3-DINOR PGE1]
B (1.1~2.0 (moderate))	CCCC[C@H](C)C[C@H](O)/C=C/[C@H]1[C@H](O)CC(=O)[C@@H]1CCCCC(CC(=O)O)OC (some centres unmarked) [Compound 63, 3-methoxy Limaprost]
A (above 2.0 (high activity))	CCCCC[C@H](O)/C=C/[C@H]1[C@H](O)CC(=O)[C@H]1C/C=C\CCCC(=O)O [Compound 68, 8-iso Prostaglandin E2]
A (above 2.0 (high activity))	CCCCC[C@H](O)/C=C/[C@H]1[C@H](O)CC(=O)[C@@H]1CCCCCCCO [Compound 89, 1,11a,15S-Trihydroxy-prost-13E-EN-9-ONE]
